According to article PMC7532004, “Site-specific effects of neurosteroids on GABAA receptor activation and desensitization” (eLife, 2020):

Legend:
α1(Q242L)β3 GABAAR = α1(Q242L)β3 GABAAR (UniProt P28472+P62813, Q268L); assay: Two-electrode voltage clamp in Xenopus laevis oocytes, Q242L mutant; assay type: cell-based; design: expressed in transfected cells; host or cells: Xenopus laevis oocytes injected with cRNA
Method: (§1) The wild-type and mutant α1β3 GABAAR were expressed in oocytes from the African clawed frog (Xenopus laevis). Frogs were purchased from Xenopus 1 (Dexter, MI), and housed and cared for in a Washington University Animal Care Facility under the supervision of the Washington University Division of Comparative Medicine. Harvesting of oocytes was conducted under the Guide for the Care and Use of Laboratory Animals as adopted and promulgated by the National Institutes of Health. The animal protocol (No. 20180191) was approved by the Animal Studies Committee of Washington University in St. Louis. The oocytes were injected with a total of 12 ng cRNA. The ratio of cRNAs was 5:1 ratio (α1:β3) to minimize the expression of β3 homomeric receptors. Following injection, the oocytes were incubated in ND96 (96 mM NaCl, 2 mM KCl, 1.8 mM CaCl2, 1 mM MgCl2, 5 mM HEPES; pH 7.4) with supplements (2.5 mM Na pyruvate, 100 U/ml penicillin, 100 μg/ml streptomycin and 50 μg/ml gentamycin) at 16°C for 2 days prior to conducting electrophysiological recordings. The electrophysiological recordings were conducted at room temperature using standard two-electrode voltage clamp. The oocytes were clamped at −60 mV. The chamber (RC-1Z, Warner Instruments, Hamden, CT) was perfused with ND96 at 5–8 ml/min. […] Current traces were analyzed with Clampfit (Molecular Devices). […]

α1(V256S)β3 GABAAR = α1(V256S)β3 GABAAR (UniProt P28472+P62813, V283S); assay: [3H]muscimol binding to HEK cell membranes, desensitization-eliminating mutant; design: expressed in transfected cells; host or cells: HEK293S GnTI- (ATCC CRL-3022), transient; species or system rat α1, human β3; settings: 10 μM neurosteroid; 3 nM [3H]muscimol
Method: (§2) The human α1 and β3 GABAAR subunits were subcloned into pcDNA3 for molecular manipulations and cRNA synthesis. Using QuikChange Site-Directed Mutagenesis Kit (Agilent Technologies, Santa Clara, CA), a FLAG tag was first added to the α1 subunit then an 8xHis tag was added to generate the following His-FLAG tag tandem ([…]), inserted between the fourth and fifth residues of the mature peptide. The α1 and β3 subunits were then transferred into the pcDNA4/TO and pcDNA5/TO vectors (Thermo Fisher Scientific), respectively, for tetracycline inducible expression. Transient expression was done using the GABAAR subunits rat α1FLAG ([Ueno et al., 1996]) and human β3 obtained from Geoffrey White (Neurogen, Branford, CT), each were subcloned into pcDNA3 for molecular manipulations and cRNA synthesis. […]
(§3) [^3H]muscimol-binding assays were performed using a previously described method ([Chen et al., 2019]). […] Time courses of neurosteroid [^3H]muscimol binding enhancement were examined by adding 10 µM of neurosteroids (3α5αP, 3β5αP) to membranes that had been fully equilibrated with 3 nM [^3H]muscimol for 1 hr on ice; binding was then measured as a function of time at 1, 3, 10, 30, 60 min. […] Radioactivity bound to the filters was measured by liquid scintillation spectrometry using Bio-Safe II (Research Products International, Mount Prospect, IL).

[1] = target: T1, α1(Q242L/N408A/Y411F)β3 GABAAR (UniProt P28472+P62813, N434A/Q268L/Y437F); assay: Two-electrode voltage clamp in Xenopus laevis oocytes, intersubunit + α1 intrasubunit mutant; assay type: cell-based; design: expressed in transfected cells; host or cells: Xenopus laevis oocytes injected with cRNA; settings: 3 μM 3α5αP, 1 mM GABA + 40 μM pentobarbital
Method: as §1

[2] = target: T1, α1(Q242L/N408A/Y411F)β3 GABAAR; assay: [3H]muscimol binding to HEK cell membranes, intersubunit + α1 intrasubunit site mutant; design: expressed in transfected cells; host or cells: HEK293S GnTI- (ATCC CRL-3022), transient; species or system rat α1, human β3; settings: 3 nM [3H]muscimol, 100% means no effect
Method: as §2, §3

[3] = target: T2, α1(N408A/Y411F)β3(Y284F) GABAAR (UniProt P28472+P62813, N434A/Y309F/Y437F); assay: Two-electrode voltage clamp in Xenopus laevis oocytes, both intrasubunit sites mutated; assay type: cell-based; settings: 3 μM 3β5αP, 1 mM GABA + 25 μM pentobarbital
T2 construct: expressed in transfected cells; host or cells: Xenopus laevis oocytes injected with cRNA
Method: as §1

α1(V227W)β3 GABAAR = target: T3, α1(V227W)β3 GABAAR (UniProt P28472+P62813, V253W); assay: [3H]muscimol binding to HEK cell membranes, α1 intrasubunit site mutant V227W; design: species or system rat α1, human β3
T3 construct: expressed in transfected cells; host or cells: HEK293S GnTI- (ATCC CRL-3022), transient
Method: The human α1 and β3 GABAAR subunits were subcloned into pcDNA3 for molecular manipulations and cRNA synthesis. Using QuikChange Site-Directed Mutagenesis Kit (Agilent Technologies, Santa Clara, CA), a FLAG tag was first added to the α1 subunit then an 8xHis tag was added to generate the following His-FLAG tag tandem ([…]), inserted between the fourth and fifth residues of the mature peptide. The α1 and β3 subunits were then transferred into the pcDNA4/TO and pcDNA5/TO vectors (Thermo Fisher Scientific), respectively, for tetracycline inducible expression. Transient expression was done using the GABAAR subunits rat α1FLAG ([Ueno et al., 1996]) and human β3 obtained from Geoffrey White (Neurogen, Branford, CT), each were subcloned into pcDNA3 for molecular manipulations and cRNA synthesis. Point mutations were generated using the QuikChange Site-Directed Mutagenesis Kit (Agilent) and the coding region was fully sequenced prior to use. The cDNAs were linearized with XbaI (NEB Labs, Ipswich, MA), and the cRNAs were generated using T7 mMessage mMachine (Ambion, Austin, TX).
[^3H]muscimol-binding assays were performed using a previously described method ([Chen et al., 2019]). […] Assay tubes were incubated for 1 hr on ice in the dark. […] Membranes were collected on Whatman/GF-C glass filter papers using a Brandel cell harvester (Gaithersburg, MD). To perform [^3H]muscimol binding isotherms, 100 μg/ml aliquots of membrane protein were incubated with 0.3 nM–1 μM [^3H]muscimol for 1 hr on ice in the dark. The specific activity for [^3H]muscimol concentrations from 30 nM to 1 μM was reduced to 2 Ci/mmol by dilution with nonradioactive muscimol. The membranes were collected on Whatman/GF-B glass filter papers using a vacuum manifold. […] For [^3H]muscimol-binding experiments examining competitive interactions between neurosteroids, the combined neurosteroids (0.3 μM 3α5αP or 3 μM KK148 ±30 μM KK150) or the same volume of dimethyl sulfoxide (DMSO) were added to the membranes which were then incubated with 3 nM [^3H]muscimol on ice for 1 hr. Time courses of neurosteroid [^3H]muscimol binding enhancement were examined by adding 10 µM of neurosteroids (3α5αP, 3β5αP) to membranes that had been fully equilibrated with 3 nM [^3H]muscimol for 1 hr on ice; binding was then measured as a function of time at 1, 3, 10, 30, 60 min. The membranes were collected on Whatman/GF-B glass filter papers using a vacuum manifold. Radioactivity bound to the filters was measured by liquid scintillation spectrometry using Bio-Safe II (Research Products International, Mount Prospect, IL).

CC(=O)[C@H]1CC[C@H]2[C@@H]3CC[C@H]4C[C@H](O)CC[C@]4(C)[C@H]3CC[C@]12C [3α5αP, allopregnanolone]
Effect on steady-state current (α1(Q242L)β3 GABAAR; 3 μM 3α5αP, 1 mM GABA + 40 μM pentobarbital, α1(Q242L)β3): small reduction | Enhancement of specific [3H]muscimol binding in α1(V256S)β3 compared with WT (α1(V256S)β3 GABAAR): unaffected | Effect on steady-state current [1]: significantly inhibited | Emax (% of control) of [3H]muscimol binding [2]: **105.9 ± 7.3 % of control

CC(=O)[C@H]1CC[C@H]2[C@@H]3CC[C@H]4C[C@@H](O)CC[C@]4(C)[C@H]3CC[C@]12C [3β5αP, epi-allopregnanolone]
Enhancement of desensitization compared with single intrasubunit site mutants [3]: less NS-enhancement of desensitization | Effect of mutation on 3β5αP-enhanced desensitization (α1(Q242L)β3 GABAAR; 3 μM 3β5αP, 1 mM GABA, α1(Q242L)β3 vs WT): without effect | Enhancement of specific [3H]muscimol binding in α1(V256S)β3 compared with WT (α1(V256S)β3 GABAAR): absent

C#CCCO[C@H]1CC[C@H]2[C@@H]3CC[C@H]4CC5(CC[C@]4(C)[C@H]3CC[C@]12C)N=N5 [KK148]
Hill slope for modulation of [3H]muscimol binding (α1(V227W)β3 GABAAR; 3 nM [3H]muscimol): 0.76 ± 0.31 | Emax (% of control) of [3H]muscimol binding (α1(V227W)β3 GABAAR; 3 nM [3H]muscimol, 100% means no effect): **209.2 ± 7.4 % of control | EC50 (α1(V227W)β3 GABAAR; 3 nM [3H]muscimol, read-out: EC50 for modulation of [3H]muscimol binding): 1730 ± 680 nM

NCc1cc(=O)[nH]o1 [muscimol]
Bmax of [3H]muscimol binding isotherm (α1(V227W)β3 GABAAR): 11.6 ± 0.4 (P > 0.99 vs. WT) pmol/mg | Kd (α1(V227W)β3 GABAAR; read-out: Kd of [3H]muscimol binding isotherm): 54.1 ± 5.8 nM
